Results published in patent EP0908457B1, “3-(1,2-benzisothiazol- and isoxazol-5-Y1)-2,4(1H,3H)-pyrimidinedione or thione and 3-(1,2-benzisothiazol- and isoxazol-5-y1)-4(3H)-pyrimidinone or thione herbicidal agents” (BASF AKTIENGESELLSCHAFT, priority 1997, dated 1999).

Experiments:
[1] = system: Echinochloa oryzoides (Ard.) Fritsch.; assay: Preemergence weed control under flooded paddy conditions, ECHORC (Watergrass (Calif.)); format: in vivo; details: preemergence, flooded paddy, rated three to four weeks after treatment
Cyperus iria = assay: Preemergence weed control under flooded paddy conditions, CYPIR (Rice Flatsedge); format: in vivo; details: preemergence, flooded paddy, rated three to four weeks after treatment
[2] = system: Cyperus serotinus, Rottb.; assay: Preemergence weed control under flooded paddy conditions, CYPSE (Flatsedge); format: in vivo; details: preemergence, rated three to four weeks after treatment
[3] = system: Monochoria vaginalis, Presl.; assay: Preemergence weed control under flooded paddy conditions, MOOVA (Monochoria); format: in vivo; details: preemergence, flooded paddy, rated three to four weeks after treatment
Sagittaria pygmaea, L. = assay: Preemergence weed control under flooded paddy conditions, SAGPY (Arrowhead (Pygmaea)); format: in vivo; details: preemergence, flooded paddy, rated three to four weeks after treatment
[4] = system: Oryza sativa, (L.) Tebonnet; assay: Rice tolerance to post-transplant applications under flooded paddy conditions (Example 187), ORYSAT (Rice, Tebonnet); details: rated three to four weeks after treatment

SMILES	ECHORC herbicidal effect rating ([1]; Rate 0.0313 kg/ha)	ECHORC herbicidal effect rating ([1]; Rate 0.0625 kg/ha)	ECHORC herbicidal effect rating ([1]; Rate 0.1250 kg/ha)	ECHORC herbicidal effect rating ([1]; Rate 0.2500 kg/ha)	CYPIR herbicidal effect rating (Cyperus iria; Rate 0.0313 kg/ha)	CYPIR herbicidal effect rating (Cyperus iria; Rate 0.0625 kg/ha)	CYPIR herbicidal effect rating (Cyperus iria; Rate 0.1250 kg/ha)	CYPSE herbicidal effect rating ([2]; Rate 0.0313 kg/ha)	CYPSE herbicidal effect rating ([2]; Rate 0.0625 kg/ha)	CYPSE herbicidal effect rating ([2]; Rate 0.1250 kg/ha)	CYPSE herbicidal effect rating ([2]; Rate 0.2500 kg/ha)	MOOVA herbicidal effect rating ([3]; Rate 0.0313 kg/ha)	MOOVA herbicidal effect rating ([3]; Rate 0.0625 kg/ha)	MOOVA herbicidal effect rating ([3]; Rate 0.1250 kg/ha)	MOOVA herbicidal effect rating ([3]; Rate 0.2500 kg/ha)	SAGPY herbicidal effect rating (Sagittaria pygmaea, L.; Rate 0.0313 kg/ha)	SAGPY herbicidal effect rating (Sagittaria pygmaea, L.; Rate 0.0625 kg/ha)	SAGPY herbicidal effect rating (Sagittaria pygmaea, L.; Rate 0.1250 kg/ha)	SAGPY herbicidal effect rating (Sagittaria pygmaea, L.; Rate 0.2500 kg/ha)	ORYSAT herbicidal effect rating ([4]; Rate 0.0313 kg/ha)	other results
Cc1nsc2ccc(-n3c(=O)cc(C(F)(F)F)n(CC#N)c3=O)cc12 [Example 213, 3,4-Dihydro-3-(3-methyl-1,2-benzisothiazol-5-yl)-2,4-dioxo-6-(trifluoromethyl)-1(2H)-pyrimidineacetonitrile]	0.0	0.0	0.0	0.0	0.0	0.0	0.0	0.0	0.0	0.0	0.0	0.0	0.0	0.0	2.0	0.0	0.0	0.0	0.0	3.0	ORYSAT herbicidal effect rating ([4]; Rate 0.0625 kg/ha): 4.0; ORYSAT herbicidal effect rating ([4]; Rate 0.1250 kg/ha): 6.0; ORYSAT herbicidal effect rating ([4]; Rate 0.2500 kg/ha): 7.0
C#CCn1c(C(F)(F)F)cc(=O)n(-c2ccc3snc(C)c3c2)c1=O [Example 217, 3-(3-Methyl-1,2-benzisothiazol-5-yl)-1-(2-propynyl)-6-(trifluoromethyl)-2,4(1H,3H)-pyrimidinedione]	0.0	0.0	0.0	0.0	0.0	0.0	0.0	0.0	0.0	0.0	0.0	2.0	4.0	7.0	7.0	0.0	0.0	0.0	0.0	2.0	CYPIR herbicidal effect rating (Cyperus iria; Rate 0.2500 kg/ha): 0.0; ORYSAT herbicidal effect rating ([4]; Rate 0.0625 kg/ha): 2.0; ORYSAT herbicidal effect rating ([4]; Rate 0.1250 kg/ha): 3.0; ORYSAT herbicidal effect rating ([4]; Rate 0.2500 kg/ha): 4.0
Cc1nsc2ccc(-n3c(=O)cc(C(F)(F)F)n(Cc4ccccc4)c3=O)cc12 [Example 218, 1-Benzyl-3-(3-methyl-1,2-benzisothiazol-5-yl)-6-(trifluoromethyl)-2,4(1H,3H)-pyrimidinedione]	0.0	0.0	2.0	4.0	0.0	0.0	0.0	0.0	0.0	0.0	0.0	8.0	9.0	9.0	9.0	0.0	0.0	0.0	0.0	1.0	CYPIR herbicidal effect rating (Cyperus iria; Rate 0.2500 kg/ha): 0.0; ORYSAT herbicidal effect rating ([4]; Rate 0.0625 kg/ha): 2.0; ORYSAT herbicidal effect rating ([4]; Rate 0.1250 kg/ha): 3.0; ORYSAT herbicidal effect rating ([4]; Rate 0.2500 kg/ha): 3.0
